From publication PMC7021728, “Structure of the agonist 12–HHT in its BLT2 receptor-bound state” (Scientific Reports, 2020)
Changes are numbered by the printed parent chain.

Experiments:
BLT2 R270^7.35A = biological target: T1, BLT2 R270^7.35A (Homo sapiens, UniProt Q9NPC1, R270A); assay: Gi protein activation catalyzed by BLT2 mutant; format: biochemical; details: R270 mutation compared to wild-type, in words
T1 construct: made in house
T1 sequence (Q9NPC1 1-358 R270A): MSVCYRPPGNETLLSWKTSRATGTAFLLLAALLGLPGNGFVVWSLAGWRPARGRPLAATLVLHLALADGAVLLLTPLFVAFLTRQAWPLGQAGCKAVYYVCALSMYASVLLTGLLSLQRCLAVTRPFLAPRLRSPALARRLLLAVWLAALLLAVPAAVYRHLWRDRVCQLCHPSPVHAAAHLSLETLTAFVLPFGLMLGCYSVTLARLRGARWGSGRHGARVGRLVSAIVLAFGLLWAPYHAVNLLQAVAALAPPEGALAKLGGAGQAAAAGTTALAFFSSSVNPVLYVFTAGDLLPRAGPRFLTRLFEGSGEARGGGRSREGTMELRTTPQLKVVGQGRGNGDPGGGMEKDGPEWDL
Protocol: (§1) All mutations were introduced in the wild-type BLT2 receptor by PCR-mediated mutagenesis using the QuickChange multisite-directed mutagenesis kit (Stratagene) and the wild-type BLT2 construct as a template. Mutations were confirmed by nucleotide sequencing.
(§2) Gαi2 and Gβ1γ2 were prepared as previously described. Briefly, agonist-dependent functional coupling of the purified receptor to Gαi2β1γ2 was assessed through the rate of GTPγS binding at increasing agonist concentrations determined by monitoring the relative increase in the intrinsic fluorescence ( λexcitation=300nm , λemission=345nm ) of Gαi2 (200 nM of purified G protein) in the presence of BLT2 (20 nM) in buffer containing 10 mM MOPS, pH 7.2, 130 mM NaCl, and 2 mM MgCl2 at 15 °C after the addition of 10 μM GTPγS. The data were normalized to the fluorescence maximum obtained in the presence of saturating concentrations in 12–HHT (10 μM).

BLT2 S174^ECL2A = biological target: T2, BLT2 S174^ECL2A (Homo sapiens, UniProt Q9NPC1, S174A); assay: Gi protein activation catalyzed by BLT2 mutant; format: biochemical; details: S174 mutation compared to wild-type, in words
T2 construct: made in house
T2 sequence (Q9NPC1 1-358 S174A): T1 sequence (Q9NPC1 1-358 R270A) with S174A, A270R
Protocol: as §1, §2

BLT1 = biological target: BLT1; parameters: method as in PMID 10934230; details: membrane fractions, BLT1 transfected HEK 293 cells; in cellulo; read-out: equilibrium dissociation constant (Kd); cited from earlier work
BLT2 = biological target: BLT2; parameters: method as in PMID 10934230; details: cited from earlier work
purified BLT2 receptor = biological target: purified BLT2 receptor; parameters: method as in PMID 21688157; details: purified BLT2 associated with amphipols in solution, in vitro; cited from earlier work
[1] = system: BLT1 (residue R156 in BLT1 mutated to alanine); parameters: method as in PMID 17237498; details: in words; cited from earlier work

CCCCC/C=C\C[C@@H](O)/C=C/C=C/C=C\[C@@H](O)CCCC(=O)O [LTB4, leukotriene B4]
effect of the mutation on ligand binding (BLT2 R270^7.35A): does not affect the binding | effect of the mutation on ligand binding (BLT2 S174^ECL2A): does not affect the binding | Kd (BLT1): ~1 nM | Kd (BLT2; membrane fractions, BLT2 transfected HEK 293 cells, in cellulo, read-out: equilibrium dissociation constant (Kd)): ~20 nM | Kd weaker in the case of BLT2 compared to BLT1 (BLT2; transfected HEK 293 cells): 20 fold | Kd (purified BLT2 receptor): ~200 nM | effect of the mutation on LTB4 binding [1]: complete loss of LTB4 binding
